Tests used:
[1] = Stability of LaKe upon storage (neat, GC-FID); type: physicochemical; conditions: ambient temperature
Experimental: Following preparation, LaKe was analyzed by GC-FID. Subsequently, LaKe was stored neat at either −15, 0, and 20 °C and the samples were reanalyzed after 24 months. Table S1 (Supporting Information) contains the corresponding stability data and the GC-FID conditions applied.

[2] = In vitro stability in simulated intestinal fluid; type: in vitro ADME; conditions: simulated intestinal fluid (SIF) with pancreatin, intestinal enzymes (pancreatin), pH = 6.8
Experimental: The in vitro stability of LaKe was evaluated following incubation in simulated gastric fluid (SGF), simulated intestinal fluid (SIF), fresh and frozen plasma (rats and humans, respectively), and the presence of hepatocytes (rats and humans) and liver microsomes (rats and humans). At the chosen time points, the mixtures were analyzed by LC-MS/MS to quantify the remaining LaKe and all assays included at least one control compound with known pharmacokinetic properties. […]
centrifuged at 4000 rpm, 4℃ for 20 min. 60 μL of supernatant was mixed with 180 μL of purified water for subsequent LC/MS/MS analysis.
LC-MS/MS Condition: ACQUITY UPLC BEH C18 1.7um 2.1 * 50mm Column (Part No.186002350). Mobile phase: A: 0.1% Formic Acid in Water; B: 0.1% Formic Acid in ACN.
Stability of LaKe in simulated intestinal fluid (SIF)
Preparation of SIF-solution: 0.136 g KH2PO4 and 0.064 g pancreatin was dissolved H2O to a total volume of solution 20 mL. The pH of the test solution was adjusted to 6.80 ± 0.05.
Procedure: 2 μL of a 10mg/ml working solution of LaKe in DMSO was spiked into 96-deep-well plates corresponding to timepoints T0, T60, T120, T360 and T1440. Experiments were performed in duplicate. 198 μL of SIF solution was then transferred to the individual wells (except T0) to reach 0.1mg/ml as the final test concentration for each time point (60, 120, 360, 1440 minutes). […]

**Q.** Which results are given for `CC(O)CCOC(=O)C(C)O` (centres unmarked) [LaKe, 3-hydroxybutyl 2-hydroxypropanoate]?
**A.** stability to storage in the neat state [1]: at least 2 years; half-life at 0.1 mg/ml [2]: < 2 h

From article PMC11403612, “Preparation and Preclinical Characterization of a Simple Ester for Dual Exogenous Supply of Lactate and Beta-hydroxybutyrate” (Journal of Agricultural and Food Chemistry, 2024)
